According to patent publication US9862678B2, “3,4-diaminobenzenesulfonamide derivatives for inhibiting cell death” (VIB VZW, priority 2014, dated 2018):
pIC50: −log10 of the molar value.

What was measured:
[1] = system: IMR-32 neuroblastoma cell line; experiment: Inhibition of erastin-induced ferroptosis in IMR-32 cells (Sytox Green cell death readout); assay type: cell-based; settings: Homo sapiens; inhibiting ferroptosis in the IMR-32 neuroblastoma cell line stimulated with 10 μM erastin; compounds 1 nM to 1 μM, triplicate
Procedure: In the present disclosure, the potency of a compound inhibiting (or reducing) ferroptosis and/or oxytosis are determined in in vitro or in vivo assays. Typically in vitro assays are used to measure the potency of a candidate compound. Examples of suitable in vitro assays are cellular assays. One non-limiting example of an assay involves the use of the IMR-32 neuroblastoma cell line. The latter is stimulated to enter into ferroptosis upon stimulation with 10 μM erastin, a documented ferroptosis inducer (see, for example, Dixon et al. (2012) Cell 149, 1060-1072, and ferroptosis inhibitors are evaluated for the prevention of erastin-induced ferroptosis. Yet another assay is based the glutamate-induced cell death in the hippocampal cell line HT22 and ferroptosis/oxytosis inhibitors are evaluated for the prevention of cell death (see N. Henke et al. (2013) Cell Death and Disease 4, e470). Still another assay is based on the sorafinib-induced cell death (described to be iron dependent cell death) in hepatocellular carcinoma cells and ferroptosis inhibitors are evaluated for the prevention of cell death (see C. Louandre et al. (2013) Int. J. Cancer 133, 1732). The calculated potency of a compound inhibiting ferroptosis and/or oxytosis is typically depicted as an IC50 value. Examples of suitable in vivo assays are typically pre-clinical disease models of, for example, mice for the diseases benefiting the application of ferroptosis and/or oxytosis inhibitors, as described herein. One non-limiting example of an in vivo assay is based on inducing liver damage in mice by administering the herbicide diquat dibromide monohydrate and ferroptosis inhibitors are evaluated based on reduced levels of liver transaminases in serum (see Q. Ran et al. (2004) J. Biol. Chem. 279, 53, 55137).
The IC50 values for the individual compounds of the disclosure were determined in the neuroblastoma, IMR-32 cell line. In brief, IMR-32 cells were subjected to 10 μM erastin, the latter compound is known to induce ferroptosis. A concentration gradient (ranging from 1 nM to 1 μM) of the compounds was applied to the cells. These experiments were performed in a 96-well format (in triplicate), and cell death was analyzed in a fluorescent plate reader by use of a fluorescent cell death dye (1.5 μM Sytox Green). The IC50 values depicted in Table 1 are the concentration values for the individual compounds which are able to overcome ferroptosis.

[2] = Kinetic solubility (turbidity); assay type: physicochemical; settings: kinetic solubility by turbidity, test range 3.125 μM to 200 μM, 10 mM PBS pH 7.4
Procedure: (§1) Unless otherwise stated, laboratory reagent grade solvents were used. Reagents were obtained from Sigma-Aldrich, Acros Organics or Fluorochem and were used without further purification. Characterization of all compounds was done with ^1H and ^13C NMR and mass spectrometry. ^1H and ^13C NMR spectra were recorded on a 400 MHz Bruker Avance III Nanobay spectrometer with Ultrashield and analyzed by use of MestReNova analytical chemistry software. Chemical shifts are in ppm, and coupling constants are in hertz (Hz). ES mass spectra were obtained from an Esquire 3000 plus ion trap mass spectrometer from Bruker Daltonics. Purities were determined with two diverse HPLC systems based either on mass determination or on UV detection. A Waters acquity UPLC system coupled to a Waters TQD ESI mass spectrometer or a Waters SQD ESI mass spectrometer was used both in combination with a Waters TUV detector. Water (A) and CH3CN (B) were used as eluents. LC-MS spectra were recorded on an Agilent 1100 series HPLC system using a Alltech Prevail C18 column (2.1 mm×50 mm, 3 μm) coupled with an Esquire 3000 plus as MS detector, and a “method A” 5-100% B, 20 min gradient was used with a flow rate of 0.2 mL/min. Formic acid, 0.1%, was added to solvents A and B. Waters Acquity UPLC BEH C18 1.7 μm, 2.1 mm×50 mm column was used. Solvent A consisted of water with 0.1% formic acid. Solvent B consisted of acetonitrile with 0.1% formic acid. Method I involved the following: 0.15 min 95% A, 5% B, then in 1.85 min from 95% A, 5% B to 95% B, 5% A, then 0.25 min (0.350 mL/min), 95% B, 5% A. The wavelength for UV detection was 254 nm. Method II involved the following: flow 0.4 mL/min, 0.25 min 95% A, 5% B, then in 4.75 min to 95% B, 5% A, then 0.25 min 95% B, 5% A, followed by 0.75 min 95% A, 5% B. The wavelength for UV detection was 214 nm. Where necessary, flash purification was performed on a Biotage ISOLERA One flash system equipped with an internal variable dual wavelength diode array detector (200-400 nm). For normal phase purifications SNAP cartridges (10-340 g, flow rate of 10-100 mL/min) were used, and reversed phase purifications were done making use of KP-C18 containing cartridges. Dry sample loading was done by self-packing samplet cartridges using silica and Celite 545, respectively, for normal and reversed phase purifications. Gradients used varied for each purification. Mouse and rat plasma came from Innovative Research. The turbidity in the kinetic solubility experiments was measured using the UV/vis spectrophotometer Synergy MX, Biotek with Gen5.

[3] = Plasma stability, murine plasma; assay type: in vitro ADME, mouse; settings: for recovery at 6 h: mouse
Procedure: as §1

[4] = Microsomal stability, human microsomes
Procedure: (§2) In a next step a subset of compounds was subjected to ADME analysis. Thereto the metabolism by murine and human microsomes of representative compounds of the disclosure was measured. The compound ferrostatin-1 (Fer-1, described in S. J. Dixon et al. (2012) Cell 149, 1060-1072), originally described to inhibit ferroptosis, was used a control. In addition, the plasma stability in murine and human plasma was measured. The percentage of remaining compounds was measured by LC-MS.

[5] = Microsomal stability, murine microsomes
Procedure: as §2

[6] = Plasma stability, human plasma; assay type: in vitro ADME; settings: for recovery at 6 h: human
Procedure: Thereto the metabolism by murine and human microsomes of representative compounds of the disclosure was measured. […] In addition, the plasma stability in murine and human plasma was measured. The percentage of remaining compounds was measured by LC-MS.

[7] = aqueous buffer, kinetic from dmso stock
[8] = human microsomes (CYP450 and other NADPH-dependent enzymes)
[9] = mouse microsomes (CYP450 and other NADPH-dependent enzymes)

SMILES | solubility [2, 7] [µM] | recovery at 6 h [3] [%] | Microsomal stability Half-life (t1/2) (min) Human ([4]; human, microsomes) [min] | Microsomal stability Half-life (t1/2) (min) Mouse ([5]; mouse, microsomes) [min] | recovery at 6 h [6] [%] | Microsomal stability Half-life (t1/2) (min) Human [4, 8] [min] | Microsomal stability Half-life (t1/2) (min) Mouse [5, 9] [min] | solubility [2] [µM] | Plasma stability % recovery after 6 h Mouse ([3]; mouse plasma, 6 h, percentage of remaining parent compound, LC-MS) [%] | Plasma stability % recovery after 6 h Human ([6]; human plasma, 6 h, percentage of remaining parent compound, LC-MS) [%] | pIC50 [1]
CCNS(=O)(=O)c1ccc(NC2CCCCC2)c(N)c1 [Compound 22, 3-amino-4-(cyclohexylamino)-N-ethylbenzenesulfonamide] | 12.5 to 25 | 86.2 | 37 ± 3 | 31 ± 5 | 81.9 | – | – | – | – | – | 7.17
CCNS(=O)(=O)c1ccc(NC2C3CC4CC(C3)CC2C4)c(NCc2ccccc2)c1 (stereo not shown) [Compound 44, 4-(adamantan-2-ylamino)-3-(benzylamino)-N-ethylbenzenesulfonamide] | 12.5 to 25 | 99.4 | 36 ± 11 | 31 ± 6 | 100 | – | – | – | – | – | 8.46
CCNS(=O)(=O)c1ccc(NC2C3CC4CC(C3)CC2C4)c(NCc2ccncc2)c1 (stereo not shown) [Compound 45, 4-(adamantan-2-ylamino)-N-ethyl-3-((pyridin-4-ylmethyl)amino)benzenesulfonamide] | 12.5 to 25 | 100 | – | – | 100 | 64 ± 10 | 26 ± 5 | – | – | – | 8.41
CCNS(=O)(=O)c1ccc(NC2CCCCC2)c(NCc2ccccc2)c1 [Compound 37, 3-(benzylamino)-4-(cyclohexylamino)-N-ethylbenzenesulfonamide] | 12.5 to 25 | 98.6 | 88 ± 16 | 187 ± 41 | 100 | – | – | – | – | – | 8.40
CCNS(=O)(=O)c1ccc(NC2CCCCC2)c(NCc2cncnc2)c1 [Compound 39, 4-(cyclohexylamino)-N-ethyl-3-((pyrimidin-5-ylmethyl)amino)benzenesulfonamide] | 100 to 200 | – | – | – | – | – | – | – | – | – | 6.73
CN1CCN(S(=O)(=O)c2ccc(NC3CCCCC3)c(NCc3ccccc3)c2)CC1 [Compound 56, N2-benzyl-N1-cyclohexyl-4-((4-methylpiperazin-1-yl)sulfonyl)benzene-1,2-diamine] | 25 to 50 | – | – | – | – | – | – | – | – | – | 7.48

Now from value to compound, other results behind:

solubility [2, 7] [µM] | recovery at 6 h [3] [%] | Microsomal stability Half-life (t1/2) (min) Human ([4]; human, microsomes) [min] | Microsomal stability Half-life (t1/2) (min) Mouse ([5]; mouse, microsomes) [min] | recovery at 6 h [6] [%] | Microsomal stability Half-life (t1/2) (min) Human [4, 8] [min] | Microsomal stability Half-life (t1/2) (min) Mouse [5, 9] [min] | solubility [2] [µM] | Plasma stability % recovery after 6 h Mouse ([3]; mouse plasma, 6 h, percentage of remaining parent compound, LC-MS) [%] | Plasma stability % recovery after 6 h Human ([6]; human plasma, 6 h, percentage of remaining parent compound, LC-MS) [%] | SMILES | pIC50 [1]
100 to 200 | – | – | – | – | – | – | – | – | – | O=S(=O)(NCCO)c1ccc(NC2CCCCC2)c(NCc2ccccc2)c1 [Compound 58, 3-(benzylamino)-4-(cyclohexylamino)-N-(2-hydroxyethyl)benzenesulfonamide] | 7.85
25 to 50 | – | – | – | – | – | – | – | – | – | O=S(=O)(c1ccc(NC2CCCCC2)c(NCc2ccccc2)c1)N1CCOCC1 [Compound 57, N2-benzyl-N1-cyclohexyl-4-(morpholinosulfonyl)benzene-1,2-diamine] | 7.52
– | – | – | – | – | 6.9 ± 0.2 | 1.9 ± 0.6 | >200 | 0 | 100 | CCOC(=O)c1ccc(NC2CCCCC2)c(N)c1 [Fer-1, ferrostatin-1, reference compound] | –
